{"source": "patent US20100204224A1", "about": "“AZACYCLIC COMPOUNDS AS INHIBITORS OF SENSORY NEURONE SPECIFIC SODIUM CHANNELS” (priority 2005, published 2010)", "data": [{"target": "T1, human Nav1.8 (hNav1.8) ion channel (Homo sapiens, UniProt Q9Y5Y9)", "T1 construct": "expressed in transfected cells", "T1 sequence (Q9Y5Y9 whole entry)": "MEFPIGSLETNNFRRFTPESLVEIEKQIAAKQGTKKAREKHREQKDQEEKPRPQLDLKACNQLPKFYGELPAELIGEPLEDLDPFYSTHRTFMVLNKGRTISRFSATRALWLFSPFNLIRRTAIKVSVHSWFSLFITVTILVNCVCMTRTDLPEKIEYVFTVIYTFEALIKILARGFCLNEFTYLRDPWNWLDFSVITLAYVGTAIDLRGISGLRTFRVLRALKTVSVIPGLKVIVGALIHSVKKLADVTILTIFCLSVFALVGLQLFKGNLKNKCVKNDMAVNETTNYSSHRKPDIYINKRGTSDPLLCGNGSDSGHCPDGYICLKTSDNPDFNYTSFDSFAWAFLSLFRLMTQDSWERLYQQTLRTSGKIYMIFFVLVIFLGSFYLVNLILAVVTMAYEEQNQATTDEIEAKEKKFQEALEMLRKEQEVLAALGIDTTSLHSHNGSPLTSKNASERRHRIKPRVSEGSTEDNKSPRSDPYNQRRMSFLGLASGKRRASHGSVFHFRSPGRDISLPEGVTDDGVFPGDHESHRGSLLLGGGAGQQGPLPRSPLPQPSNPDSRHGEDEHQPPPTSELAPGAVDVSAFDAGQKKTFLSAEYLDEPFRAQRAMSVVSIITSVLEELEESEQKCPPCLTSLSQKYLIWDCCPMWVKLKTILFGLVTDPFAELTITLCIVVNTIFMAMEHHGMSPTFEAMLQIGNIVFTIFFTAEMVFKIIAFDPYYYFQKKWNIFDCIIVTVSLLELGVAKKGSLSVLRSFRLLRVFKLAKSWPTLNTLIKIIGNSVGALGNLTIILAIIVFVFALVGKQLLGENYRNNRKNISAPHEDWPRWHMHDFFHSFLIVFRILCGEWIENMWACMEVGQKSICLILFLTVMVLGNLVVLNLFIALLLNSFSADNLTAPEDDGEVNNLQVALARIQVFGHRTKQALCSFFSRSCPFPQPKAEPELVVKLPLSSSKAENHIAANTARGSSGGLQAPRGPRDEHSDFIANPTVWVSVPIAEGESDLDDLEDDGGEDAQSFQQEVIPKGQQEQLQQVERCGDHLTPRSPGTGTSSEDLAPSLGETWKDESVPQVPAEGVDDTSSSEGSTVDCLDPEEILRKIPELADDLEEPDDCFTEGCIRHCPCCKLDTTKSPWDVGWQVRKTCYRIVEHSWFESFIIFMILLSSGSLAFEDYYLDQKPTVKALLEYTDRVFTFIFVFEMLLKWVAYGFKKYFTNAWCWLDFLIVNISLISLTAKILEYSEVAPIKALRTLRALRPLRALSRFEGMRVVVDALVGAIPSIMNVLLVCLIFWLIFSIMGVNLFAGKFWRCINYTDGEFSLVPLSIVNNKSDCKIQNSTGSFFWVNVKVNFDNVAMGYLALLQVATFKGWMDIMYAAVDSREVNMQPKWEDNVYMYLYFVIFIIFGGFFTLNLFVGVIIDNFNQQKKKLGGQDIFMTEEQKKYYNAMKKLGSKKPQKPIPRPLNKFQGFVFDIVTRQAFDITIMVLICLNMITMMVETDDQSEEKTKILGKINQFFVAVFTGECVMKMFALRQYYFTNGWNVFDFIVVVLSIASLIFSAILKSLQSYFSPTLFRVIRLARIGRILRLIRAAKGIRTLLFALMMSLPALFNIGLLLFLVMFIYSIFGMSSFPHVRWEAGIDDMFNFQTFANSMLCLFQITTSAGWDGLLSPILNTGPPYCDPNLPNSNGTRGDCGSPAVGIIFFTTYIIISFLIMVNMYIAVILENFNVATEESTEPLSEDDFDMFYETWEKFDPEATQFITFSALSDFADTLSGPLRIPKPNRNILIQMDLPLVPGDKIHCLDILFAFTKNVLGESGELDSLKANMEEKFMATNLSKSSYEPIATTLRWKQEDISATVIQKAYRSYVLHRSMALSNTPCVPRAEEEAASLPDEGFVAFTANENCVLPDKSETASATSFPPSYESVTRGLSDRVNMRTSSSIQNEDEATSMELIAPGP", "test": "Inhibition of human Nav1.8 stably expressed in SH-SY-5Y cells (membrane potential dye fluorescence assay)", "type": "cell-based", "details": "SH-SY-5Y hNav1.8 cells; FLIPR membrane potential dye; 10 μM pyrethroid, 250 nM TTX; test concentration range 100 μM-0.05 μM; read-out: hNav1.8 IC50", "units": {"IC50": "µM"}, "values": [{"smiles": "CC(c1ccccc1Cl)N1CC2CC1CN2C(=O)N(C)c1ccc(Oc2ccc(F)cc2)cc1", "note": "(stereo not drawn) [Example 143, 5-[1-(2-Chloro-phenyl)-ethyl]-2,5-diaza-bicyclo[2.2.1]heptane-2-carboxylic acid [4-(4-fluoro-phenoxy)-phenyl]-methyl-amide]", "IC50": 3.21}, {"smiles": "O=C(Nc1ccc(Oc2ccccc2)cc1)N1CC2CC1CN2C1Cc2ccc(F)cc2C1", "note": "(stereo not drawn) [Example 125, 5-(5-Fluoro-indan-2-yl)-2,5-diaza-bicyclo[2.2.1]heptane-2-carboxylic acid (4-phenoxy-phenyl)-amide]", "IC50": 0.78}, {"smiles": "Cc1cc(F)ccc1C(C)N1CC2CC1CN2C(=O)Nc1ccc(Oc2ccccc2)cc1", "note": "(stereo not drawn) [Example 64, 5-[1-(4-Fluoro-2-methyl-phenyl)-ethyl]-2,5-diaza-bicyclo[2.2.1]heptane-2-carboxylic acid (4-phenoxy-phenyl)-amide]", "IC50": 0.27}, {"smiles": "CC(c1ccc(Cl)cc1Cl)N1CC2CC1CN2C(=O)Nc1ccc(Oc2ccc(Cl)cc2)cc1", "note": "(stereo not drawn) [Example 122, 5-[1-(2,4-Dichloro-phenyl)-ethyl]-2,5-diaza-bicyclo[2.2.1]heptane-2-carboxylic acid [4-(4-chloro-phenoxy)-phenyl]-amide]", "IC50": 19.2}, {"smiles": "CC(c1ccccc1Cl)N1CC2CC1CN2C(=O)Nc1ccc(Oc2ccccc2)cc1", "note": "(single isomer, unassigned) [Example 12, 5-[1-(2-Chloro-phenyl)-ethyl]-2,5-diaza-bicyclo[2.2.1]heptane-2-carboxylic acid (4-phenoxy-phenyl)-amide]", "IC50": 0.36}, {"smiles": "CCOCCOCCOc1ccc(NC(=O)N2CC3CC2CN3C(C)c2ccccc2C)cc1", "note": "(stereo not drawn) [Example 16, 5-(1-o-Tolyl-ethyl)-2,5-diaza-bicyclo[2.2.1]heptane-2-carboxylic acid {4-[2-(2-ethoxy-ethoxy)-ethoxy]-phenyl}-amide]", "IC50": 25.6}, {"smiles": "CC(C(C#N)c1ccccc1)N1CC2CC1CN2C(=O)Nc1ccc(C(F)(F)F)cc1", "note": "(stereo not drawn) [Example 81, 5-(2-Cyano-1-methyl-2-phenyl-ethyl)-2,5-diaza-bicyclo[2.2.1]heptane-2-carboxylic acid (4-trifluoromethyl-phenyl)-amide]", "IC50": 26.2}, {"smiles": "Cc1cc(F)ccc1C(C)N1CC2CC1CN2C(=O)Nc1ccc(C(=O)c2ccccc2)cc1", "note": "(stereo not drawn) [Example 72, 5-[1-(4-Fluoro-2-methyl-phenyl)-ethyl]-2,5-diaza-bicyclo[2.2.1]heptane-2-carboxylic acid (4-benzoyl-phenyl)-amide]", "IC50": 2.26}, {"smiles": "Cc1ccccc1C(C)N1CC2CC1CN2C(=O)Nc1ccc(OCc2ccccc2)cc1", "note": "(stereo not drawn) [Example 33, 5-(1-o-Tolyl-ethyl)-2,5-diaza-bicyclo[2.2.1]heptane-2-carboxylic acid (4-benzyloxy-phenyl)-amide]", "IC50": 0.49}, {"smiles": "CC(c1ccccc1Cl)N1CC2CC1CN2C(=O)c1ccc(Oc2cccc(C#N)c2)cc1", "note": "(stereo not drawn) [Example 173, 3-(4-{5-[1-(2-Chloro-phenyl)-ethyl]-2,5-diaza-bicyclo[2.2.1]heptane-2-carbonyl}-phenoxy)-benzonitrile]", "IC50": 1.93}, {"smiles": "Cc1ccccc1CC(C)N1CC2CC1CN2C(=O)NC(C)c1ccc(F)cc1", "note": "(stereo not drawn) [Example 70, 5-(1-Methyl-2-o-tolyl-ethyl)-2,5-diaza-bicyclo[2.2.1]heptane-2-carboxylic acid [1-(4-fluoro-phenyl)-ethyl]-amide]", "IC50": 5.08}, {"smiles": "CC(c1ccc(F)cc1Cl)N1CC2CC1CN2C(=O)Nc1ccc(Oc2ccc(F)cc2)cc1", "note": "(stereo not drawn) [Example 133, 5-[1-(2-Chloro-4-fluoro-phenyl)-ethyl]-2,5-diaza-bicyclo[2.2.1]heptane-2-carboxylic acid [4-(4-fluoro-phenoxy)-phenyl]-amide]", "IC50": 1.19}, {"smiles": "CC(c1ccccc1Cl)N1CC2CC1CN2C(=O)Nc1ccc(Oc2ccc(F)cc2)cc1", "note": "(single isomer, unassigned) [Example 76, 5-[1-(2-Chloro-phenyl)-ethyl]-2,5-diaza-bicyclo[2.2.1]heptane-2-carboxylic acid [4-(4-fluoro-phenoxy)-phenyl]-amide]", "IC50": 0.27}, {"smiles": "O=C(Nc1ccc(C(F)(F)F)cc1)N1CC2CC1CN2C1CCc2cc(F)ccc21", "note": "(stereo not drawn) [Example 94, 5-(5-Fluoro-indan-1-yl)-2,5-diaza-bicyclo[2.2.1]heptane-2-carboxylic acid (4-trifluoromethyl-phenyl)-amide]", "IC50": 1.89}, {"smiles": "CC(c1ccccc1Cl)N1CC2CC1CN2C(=O)c1ccc(Oc2ccc(F)cc2)c(F)c1", "note": "(single isomer, unassigned) [Example 176, {5-[1-(2-Chloro-phenyl)-ethyl]-2,5-diaza-bicyclo[2.2.1]hept-2-yl}-[3-fluoro-4-(4-fluoro-phenoxy)-phenyl]-methanone]", "IC50": 0.43}, {"smiles": "O=C(Nc1ccc(Oc2ccccc2)cc1)N1CC2CN(Cc3ccccc3)CC2C1", "note": "(stereo not drawn) [Example 89, 5-Benzyl-hexahydro-pyrrolo[3,4-c]pyrrole-2-carboxylic acid (4-phenoxy-phenyl)-amide]", "IC50": 0.4}, {"smiles": "CC(c1ccccc1C(F)(F)F)N1CC2CC1CN2C(=O)Nc1cccc(Oc2ccccc2)c1", "note": "(stereo not drawn) [Example 61, 5-[1-(2-Trifluoromethyl-phenyl)-ethyl]-2,5-diaza-bicyclo[2.2.1]heptane-2-carboxylic acid (3-phenoxy-phenyl)-amide]", "IC50": 4.64}, {"smiles": "Cc1ccccc1C(C)N1CC2CC1CN2C(=O)Nc1ccc(Cc2ccccc2)cc1", "note": "(stereo not drawn) [Example 35, 5-(1-o-Tolyl-ethyl)-2,5-diaza-bicyclo[2.2.1]heptane-2-carboxylic acid (4-benzyl-phenyl)-amide]", "IC50": 0.59}, {"smiles": "Cc1ccsc1C(C)N1CC2CC1CN2C(=O)Nc1ccc(Oc2ccccc2)cc1", "note": "(stereo not drawn) [Example 14, 5-[1-(3-Methyl-thiophen-2-yl)-ethyl]-2,5-diaza-bicyclo[2.2.1]heptane-2-carboxylic acid (4-phenoxy-phenyl)-amide]", "IC50": 0.9}, {"smiles": "CC(Cc1ccc(Cl)cc1Cl)N1CC2CC1CN2C(=O)Nc1ccc(C(F)(F)F)cc1", "note": "(stereo not drawn) [Example 84, 5-[2-(2,4-Dichloro-phenyl)-1-methyl-ethyl]-2,5-diaza-bicyclo[2.2.1]heptane-2-carboxylic acid (4-trifluoromethyl-phenyl)-amide]", "IC50": 1.06}, {"smiles": "O=C(Nc1ccc(C(F)(F)F)cc1)N1CC2CC1CN2C1CCc2cc(F)ccc21", "note": "(stereo not drawn) [Example 95, 5-(5-Fluoro-indan-1-yl)-2,5-diaza-bicyclo[2.2.1]heptane-2-carboxylic acid (4-trifluoromethyl-phenyl)-amide]", "IC50": 1.06}, {"smiles": "O=C(Nc1ccc(Oc2ccc(F)cc2)cc1)N1CCC2(CCN(Cc3ccccc3)C2)C1", "note": "(stereo not drawn) [Example 103, 7-Benzyl-2,7-diaza-spiro[4.4]nonane-2-carboxylic acid [4-(4-fluoro-phenoxy)-phenyl]-amide]", "IC50": 0.39}]}, {"target": "T1, human Nav1.8 (hNav1.8) ion channel", "test": "Inhibition of human Nav1.8 stably expressed in SH-SY-5Y cells (membrane potential dye fluorescence assay)", "type": "cell-based", "details": "hNav1.8 IC50, SH-SY-5Y hNav1.8 cells; FLIPR membrane potential dye; 10 μM pyrethroid, 250 nM TTX; test concentration range 100 μM-0.05 μM", "units": {"IC50": "µM"}, "values": [{"smiles": "CC(c1ccc(F)cc1Cl)N1CC2CC1CN2C(=O)Cc1ccc(Oc2ccc(F)cc2)cc1", "note": "(single isomer, unassigned) [Example 161, 1-{5-[1-(2-Chloro-4-fluoro-phenyl)-ethyl]-2,5-diaza-bicyclo[2.2.1]hept-2-yl}-2-[4-(4-fluoro-phenoxy)-phenyl]-ethanone]", "IC50": 4.75}, {"smiles": "CC(c1ccc(F)cc1Cl)N1CC2CC1CN2C(=O)Cc1ccc(Oc2ccc(F)cc2)cc1", "note": "(single isomer, unassigned) [Example 162, 1-{5-[1-(2-Chloro-4-fluoro-phenyl)-ethyl]-2,5-diaza-bicyclo[2.2.1]hept-2-yl}-2-[4-(4-fluoro-phenoxy)-phenyl]-ethanone]", "IC50": 18.3}]}]}
